Tests used:
[1] = 100 kPa, Liquid; for viscosity: Falling or rolling sphere viscometry; for mass density: Vibrating tube method
[2] = xn = mol fraction of the nth substance listed; conditions: 100 kPa, Liquid; for viscosity: Falling or rolling sphere viscometry; for mass density: Vibrating tube method

c1ccc2c(c1)CCCC2 [1,2,3,4-tetrahydronaphthalene]
[1]
Conditions	mass density [kg/m3]	viscosity [mPa·s]
293.15 K	968.89	2.233
298.15 K	964.92	2.019
303.15 K	960.96	1.838
308.15 K	956.99	1.681
313.15 K	953.03	1.546
318.15 K	949.05	1.428
323.15 K	945.1	1.324
328.15 K	941.13	1.233
333.15 K	937.17	1.151
338.15 K	933.19	1.079
343.15 K	929.2	1.013

c1ccc2c(c1)CCCC2 [1,2,3,4-tetrahydronaphthalene] + OCC1CC1
[2], x1 = 1
Conditions	mass density [kg/m3]	viscosity [mPa·s]
293.15 K	968.89	2.233
298.15 K	964.92	2.019
303.15 K	960.96	1.838
308.15 K	956.99	1.681
313.15 K	953.03	1.546
318.15 K	949.05	1.428
323.15 K	945.1	1.324
328.15 K	941.13	1.233
333.15 K	937.17	1.151
338.15 K	933.19	1.079
343.15 K	929.2	1.013

CC(C)C1CCCCC1 [(1-methylethyl)cyclohexane]
[1]
Conditions	mass density [kg/m3]	viscosity [mPa·s]
293.15 K	802.14	1.093
298.15 K	798.24	1.016
303.15 K	794.34	0.947
308.15 K	790.43	0.886
313.15 K	786.51	0.831
318.15 K	782.59	0.782
323.15 K	778.66	0.738
328.15 K	774.72	0.698
333.15 K	770.77	0.661
338.15 K	766.81	0.628
343.15 K	762.84	0.598

OCC1CC1 [cyclopropylmethanol]
[1]
Conditions	mass density [kg/m3]	viscosity [mPa·s]
293.15 K	913.02	3.988
298.15 K	908.96	3.455
303.15 K	904.87	3.009
308.15 K	900.74	2.635
313.15 K	896.59	2.321
318.15 K	892.38	2.054
323.15 K	888.17	1.825
328.15 K	883.86	1.629
333.15 K	879.52	1.46
338.15 K	875.1	1.316
343.15 K	870.62	1.19

OCC1CC1 [cyclopropylmethanol] + CC(C)C1CCCCC1
[2], x2 = 0
Conditions	mass density [kg/m3]	viscosity [mPa·s]
293.15 K	913.02	3.988
298.15 K	908.96	3.455
303.15 K	904.87	3.008
308.15 K	900.74	2.635
313.15 K	896.59	2.321
318.15 K	892.38	2.054
323.15 K	888.17	1.825
328.15 K	883.86	1.629
333.15 K	879.52	1.46
338.15 K	875.1	1.317
343.15 K	870.62	1.19

c1ccc2c(c1)CCCC2 [1,2,3,4-tetrahydronaphthalene] + CC(C)C1CCCCC1
[2], x1 = 1
Conditions	mass density [kg/m3]	viscosity [mPa·s]
293.15 K	968.89	2.233
298.15 K	964.92	2.019
303.15 K	960.96	1.838
308.15 K	956.99	1.681
313.15 K	953.03	1.546
318.15 K	949.05	1.428
323.15 K	945.1	1.324
328.15 K	941.13	1.233
333.15 K	937.17	1.151
338.15 K	933.19	1.079
343.15 K	929.2	1.013

Source: the NIST ThermoML archive (doi:10.1021/acs.jced.8b00662)
